# What was measured:
# [1] = test system: modified luciferase expression; assay: Expression of Luc in different organs (liver, lung, spleen, femur) 6 hours after intravenous administration; format: in vivo; details: i.v., 0.5 mpk
# Protocol: The efficacy of the nanoparticle compositions presented in Tables 1, 1a, 17-1, 19-1, 20-1 and 21-1 was further evaluated by measuring the expression of modified luciferase in the liver, lung, spleen, and femur upon administration of a given composition. Formulations were administered intravenously to mice (n=3) at a dosage of 0.5 mpk and bioluminescence measured after 6 hours. The standard MC3 formulation and a PBS control were also tested.
# [2] = pKa of nanoparticle compositions; format: physicochemical
# [3] = Encapsulation efficiency of RNA (QUANT-IT RIBOGREEN RNA assay); format: physicochemical; details: for encapsulation efficiency, rank within the named table (in words): comparison amongst compositions
# Protocol: For nanoparticle compositions including an RNA, a QUANT-IT™ RIBOGREEN® RNA assay (Invitrogen Corporation Carlsbad, Calif.) can be used to evaluate the encapsulation of an RNA by the nanoparticle composition. The samples are diluted to a concentration of approximately 5 μg/mL in a TE buffer solution (10 mM Tris-HCl, 1 mM EDTA, pH 7.5). 50 μL of the diluted samples are transferred to a polystyrene 96 well plate and either 50 μL of TE buffer or 50 μL of a 2% Triton X-100 solution is added to the wells. The plate is incubated at a temperature of 37° C. for 15 minutes. The RIBOGREEN® reagent is diluted 1:100 in TE buffer, and 100 μL of this solution is added to each well. The fluorescence intensity can be measured using a fluorescence plate reader (Wallac Victor 1420 Multilablel Counter; Perkin Elmer, Waltham, Mass.) at an excitation wavelength of, for example, about 480 nm and an emission wavelength of, for example, about 520 nm. The fluorescence values of the reagent blank are subtracted from that of each of the samples and the percentage of free RNA is determined by dividing the fluorescence intensity of the intact sample (without addition of Triton X-100) by the fluorescence value of the disrupted sample (caused by the addition of Triton X-100).
# [4] = Particle size and polydispersity index of nanoparticle compositions (Zetasizer Nano ZS); format: physicochemical
# Protocol: A Zetasizer Nano ZS (Malvern Instruments Ltd, Malvern, Worcestershire, UK) can be used to determine the particle size, the polydispersity index (PDI) and the zeta potential of the nanoparticle compositions in 1×PBS in determining particle size and 15 mM PBS in determining zeta potential.
# IP-10 = assay: Cytokine production induced by sample formulations: IP-10; format: in vivo; details: mice, i.v., 0.5 mpk, 6 hours, in pg/mL (unit assumed)
# From the text: (§1) The introduction of foreign material into a mammalian body induces an innate immune response that promotes cytokine production. Such immune responses to, for example, nanoparticle compositions including therapeutic and/or prophylactic agents, are undesirable. The induction of certain cytokines is thus measured to evaluate the […] of nanoparticle compositions. The concentrations of various cytokines in mice upon intravenous administration of nanoparticle compositions presented in Tables 1, 1a, 17-1, 19-1, 20-1 and 21-1 at a dosage of 0.5 mpk was measured at 6 hours. The standard MC3 formulation and a PBS control were also tested.
# [5] = test system: luciferase (Luc) mRNA expression; assay: Expression of Luc induced by sample formulations, whole-body bioluminescence after intravenous administration; format: in vivo; details: mice, i.v., 0.5 mg/kg
# Protocol: In order to monitor how effectively various nanoparticle compositions deliver therapeutic and/or prophylactic agents to targeted cells, different nanoparticle compositions including a particular therapeutic and/or prophylactic agent (for example, a modified or naturally occurring RNA such as an mRNA) are prepared and administered to rodent populations. Mice are intravenously, intramuscularly, intraarterially, or intratumorally administered a single dose including a nanoparticle composition with a formulation such as those provided in Table 1. In some instances, mice may be made to inhale doses. Dose sizes may range from 0.001 mg/kg to 10 mg/kg, where 10 mg/kg describes a dose including 10 mg of a therapeutic and/or prophylactic agent in a nanoparticle composition for each 1 kg of body mass of the mouse. A control composition including PBS may also be employed.
# Upon administration of nanoparticle compositions to mice, dose delivery profiles, dose responses, and toxicity of particular formulations and doses thereof can be measured by enzyme-linked immunosorbent assays (ELISA), bioluminescent imaging, or other methods. For nanoparticle compositions including mRNA, time courses of protein expression can also be evaluated. Samples collected from the rodents for evaluation may include blood, sera, and tissue (for example, muscle tissue from the site of an intramuscular injection and internal tissue); sample collection may involve sacrifice of the animals.
# The efficacy of the nanoparticle compositions presented in Tables 1, 1a, 17-1, 19-1, 20-1 and 21-1 was evaluated with a bioluminescence study. Formulations were administered intravenously to mice (n=6) at a dosage of 0.5 mg/kg (mpk) and bioluminescence measured at 3, 6, and 24 hour time points. The standard MC3 formulation and a PBS control were evaluated for comparison.
# IL-6 = assay: Cytokine production induced by sample formulations: IL-6; format: in vivo; details: mice, i.v., 0.5 mpk, 6 hours
# From the text: as §1
# [6] = Table 1, * lipid:DSPC:Chol:PEG-DMG 50:10:38.5:1.5
# [7] = Table 1, * formulated with lipid:DSPC:Chol:PEG-DMG 50:10:38.5:1.5
# [8] = Table 1, rows without footnote mark
# [9] = Table 20-1, rows without footnote mark
smiles,measurement,setting,value
"CCCCCCCCCCCCN(CCCCCCCCCCCC)CCN1CCN(C(=O)CN(CCCCCCCCCCCC)CCN(CCCCCCCCCCCC)CCCCCCCCCCCC)CC1 [Compound 2, 2-((2-(Didodecylamino)ethyl)(dodecyl)amino)-1-(4-(2-(didodecylamino)ethyl)piperazin-1-yl)ethan-1-one]",Total Flux Liver,"[1]; Table 3, mice",3.33E+08
same,Total Flux Lung,"[1]; Table 3, mice",4.76E+05
same,Total Flux Spleen,"[1]; Table 3, mice, spleen",1.14E+07
same,pKa,[2]; [6],6.39
same,EE (%),[3]; [6],96%
same,Size (nm),[4]; [7],94.7 nm
same,PDI,[4]; [6],0.108
same,IP-10,IP-10; Table 4,3365
same,Total Flux 3 hours,[5]; Table 2,6.01E+09
same,Total Flux 6 hours,[5]; Table 2,3.23E+09
same,Total Flux 24 hours,[5]; Table 2,3.23E+09
"CCCCCCCCCCCCN(CCCCCCCCCCCC)CCN(CCCCCCCCCCCC)CCN1CCN(C(=O)CN(CCCCCCCCCCCC)CCCCCCCCCCCC)CC1 [Compound 3, 2-(Didodecylamino)-1-(4-(2-((2-(didodecylamino)ethyl)(dodecyl)amino)ethyl)piperazin-1-yl)ethan-1-one]",Total Flux Liver,"[1]; Table 3, mice",1.36E+08
same,Total Flux Lung,"[1]; Table 3, mice",8.47E+05
same,Total Flux Spleen,"[1]; Table 3, mice, spleen",9.51E+05
same,EE (%),[3]; [8],92.5%
same,PDI,[4]; [8],0.044
same,Size (nm),"[4]; Table 1, rows without footnote mark (lipid:DOPE:cholesterol:PEG-DMG 40:20:38.5:1.5, Luc mRNA; MC3 standard formulation)",73.5 nm
same,IP-10,IP-10; Table 4,341
same,Total Flux 3 hours,[5]; Table 2,3.75E+08
same,Total Flux 6 hours,[5]; Table 2,1.12E+09
same,IL-6,"IL-6; Table 4, in pg/mL (unit assumed)",7
same,"IL-6 induction, rank within the named table (in words)",IL-6,lowest IL-6 expression
"CCCCCCCC/C=C\CCCCCCCCN(CCO)CCCCCCCC/C=C\CCCCCCCC [Compound 17-8, 2-(Di((Z)-octadec-9-en-1-yl)amino)ethan-1-ol]",Total Flux Liver,"[1]; Table 17-3, mice",2.27E+08
same,Total Flux Lung,"[1]; Table 17-3, mice",6.11E+05
same,Total Flux Spleen,"[1]; Table 17-3, mice, spleen",4.25E+06
same,"total flux in the liver, rank within the named table (in words)",[1]; mice,somewhat comparable to those including MC3
same,"total flux in the spleen, rank within the named table (in words)","[1]; mice, spleen",highest
same,pKa,[2]; Table 17-1,6.16
same,EE (%),[3]; Table 17-1,96.9%
same,"encapsulation efficiency, rank within the named table (in words)",[3],comparable to that for MC3
same,PDI,[4]; Table 17-1,0.20
same,Size (nm),[4]; Table 17-1,86.4 nm
same,IP-10,IP-10; Table 17-4,135
same,Total Flux 3 hours,[5]; Table 17-2,1.02E+09
same,Total Flux 6 hours,[5]; Table 17-2,5.94E+08
same,Total Flux 24 hours,[5]; Table 17-2,3.79E+07
same,"total flux / Luc expression, rank within the named table (in words)",[5]; each time point,"substantially higher flux than compositions including Compounds 17-2, 17-3, and 17-7"
"CCCCCCCCCN(CCO)CCN(CCCCCCCCC)CCCCCCCCC [Compound 20-16, 2-((2-(Dinonylamino)ethyl)(nonyl)amino)ethan-1-ol]",Total Flux Liver,"[1]; Table 20-3, mice",9.55E+04
same,Total Flux Lung,"[1]; Table 20-3, mice",1.44E+04
same,Total Flux Spleen,"[1]; Table 20-3, mice, spleen",6.57E+04
same,"total flux in the liver, rank within the named table (in words)",[1]; mice,lowest
same,pKa,[2]; [9],6.62
same,EE (%),[3]; [9],97.2%
same,PDI,[4]; [9],0.225
same,Size (nm),[4]; [9],73.5 nm
same,IP-10,"IP-10; Table 20-4, formula (20-I)",395.7
same,Total Flux 3 hours,[5]; Table 20-2,7.88E+05
same,Total Flux 6 hours,[5]; Table 20-2,6.25E+05
same,Total Flux 24 hours,[5]; Table 20-2,2.16E+05
same,"total flux after 24 hours, rank within the named table (in words)",[5],lowest
"CCCCCCCCCCCCN(CCCCCCCCCCCC)CCNCCO [Compound 20-19, 2-((2-(Didodecylamino)ethyl)amino)ethan-1-ol]",Total Flux Liver,"[1]; Table 20-3, mice",3.80E+05
same,Total Flux Lung,"[1]; Table 20-3, mice",1.96E+04
same,Total Flux Spleen,"[1]; Table 20-3, mice, spleen",2.74E+04
same,pKa,[2]; [9],4.73
same,EE (%),[3]; [9],99.5%
same,"encapsulation efficiency, rank within the named table (in words)",[3],highest
same,PDI,[4]; [9],0.145
same,Size (nm),[4]; [9],74.9 nm
same,IP-10,"IP-10; Table 20-4, formula (20-I)",127.2
same,Total Flux 3 hours,[5]; Table 20-2,5.37E+05
same,Total Flux 6 hours,[5]; Table 20-2,7.60E+05
same,Total Flux 24 hours,[5]; Table 20-2,6.08E+05
"CCCCC/C=C\C/C=C\CCCCCCCC1C(CCCCCCC/C=C\C/C=C\CCCCC)C1CN(C)C (stereo not shown) [Compound 21-6, 1-(2,3-Di((8Z,11Z)-heptadeca-8,11-dien-1-yl)cyclopropyl)-N,N-dimethylmethanamine]",Total Flux Liver,"[1]; Table 21-3, mice",4.79E+08
same,Total Flux Lung,"[1]; Table 21-3, mice",2.09E+06
same,Total Flux Spleen,"[1]; Table 21-3, mice, spleen",1.94E+07
same,pKa,[2]; Table 21-1,6.99
same,EE (%),[3]; Table 21-1,98.9%
same,PDI,[4]; Table 21-1,0.110
same,Size (nm),[4]; Table 21-1,86.8 nm
same,Total Flux 3 hours,[5]; Table 21-2,2.92E+09
same,Total Flux 6 hours,[5]; Table 21-2,4.54E+09
same,Total Flux 24 hours,[5]; Table 21-2,1.40E+08
"CCCCCCCCCCCCN(CCCCCCCCCCCC)CCN(CCCCCCCCCCCC)CCN1CCNCC1 [Compound 37, N^1,N^1,N^2-Tridodecyl-N^2-(2-(piperazin-1-yl)ethyl)ethane-1,2-diamine]",Total Flux Liver,"[1]; Table 3, mice",1.92E+06
same,Total Flux Lung,"[1]; Table 3, mice",6.90E+05
same,Total Flux Spleen,"[1]; Table 3, mice, spleen",9.75E+05
same,pKa,[2]; [6],6.45
same,EE (%),[3]; [6],99.9%
same,"encapsulation efficiency, rank within the named table (in words)",[3],highest
same,Size (nm),[4]; [7],86.6 nm
same,PDI,[4]; [6],0.107
same,IP-10,IP-10; Table 4,198
same,Total Flux 3 hours,[5]; Table 2,1.19E+07
same,Total Flux 6 hours,[5]; Table 2,6.66E+06
same,Total Flux 24 hours,[5]; Table 2,9.38E+05
same,"total flux after 24 hours, rank within the named table (in words)",[5],lowest flux after 24 hours

# — US10195156B2, “Compounds and compositions for intracellular delivery of agents” (ModernaTX, Inc., priority 2015, dated 2019)
